# Results published in US8987195B2 (priority 2012, dated 2015).
# pEC50: −log10 of the molar value. Where two headings read alike, the source gives them in different places.
# Assays:
# HCV genotype 1b replicon = assay: HCV replicon assay, genotype 1b replicon EC50; type: cell-based, Hepatitis C virus; conditions: Hepatitis C virus, genotype 1b replicon, read-out: EC50 [gt-1b]
# How it was run: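 Stable neomycin phosphotransferase-encoding replicon cell lines, kept under G418 selection beforehand, were plated with a compound dilution series without G418 and incubated 24-48 hours. Replicon RNA was then quantified, or luciferase activity read. EC50 was calculated as percent of DMSO control by four-parameter fit.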
# [1] = target: HCV NS3/4A protease genotype 1b (Hepatitis C virus genotype 1b, UniProt P26663); assay: HCV NS3/4A protease time-resolved fluorescence (TRF) assay, Ki against genotype 1b; type: biochemical; conditions: IC50 [gt-1b] (nM), NS3/4A genotype 1b, enzyme 0.2 nM
# How it was run: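 First, protease (genotype 1b 0.2 nM, A156T 0.4 nM, genotype 3a 0.025 nM) is preincubated 30 min with inhibitor. Next, 25 nM TRF substrate starts the reaction, run 2.5 h at room temperature. Finally, europium fluorescence is read and Ki calculated from IC50.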
Structure (SMILES),pEC50 (HCV genotype 1b replicon; K+ salt),IC50 ([1]; K+ salt) [nM],pEC50 (HCV genotype 1b replicon),IC50 [1] [nM]
"COc1ccc2nc(C3CC3)c3c(c2c1)C(F)(F)C[C@]1(C[C@H]2C(=O)N[C@]4(C(=O)NS(=O)(=O)C5(C)CC5)C[C@H]4/C=C\CCCCC[C@H](NC(=O)OCC(C)C)C(=O)N2C1)O3 [Example 248, 2-methylpropyl [(2S,6S,12Z,13aS,14aR,16aS)-5′-cyclopropyl-1′,1′-difluoro-9′-methoxy-14a-{[(1-methylcyclopropyl)sulfonyl]carbamoyl}-5,16-dioxo-1,1′,2′,5,6,7,8,9,10,11,13a,14,14a,15,16,16a-hexadecahydrospiro[cyclopropa[e]pyrrolo[1,2-a][1,4]diazacyclopentadecine-2,3′-pyrano[2,3-c]quinolin]-6-yl]carbamate]",7.83,0.026,–,–
"COc1ccc2nc(C3CC3)c3c(c2c1)C(F)(F)C[C@]1(C[C@H]2C(=O)N[C@]4(C(=O)NS(=O)(=O)C5(C)CC5)C[C@H]4/C=C\CCCCC[C@H](NC(=O)O[C@H](C)C(C)C)C(=O)N2C1)O3 [Example 249, (2R)-3-methylbutan-2-yl [(2S,6S,12Z,13aS,14aR,16aS)-5′-cyclopropyl-1′,1′-difluoro-9′-methoxy-14a-{[(1-methylcyclopropyl)sulfonyl]carbamoyl}-5,16-dioxo-1,1′,2′,5,6,7,8,9,10,11,13a,14,14a,15,16,16a-hexadecahydrospiro[cyclopropa[e]pyrrolo[1,2-a][1,4]diazacyclopentadecine-2,3′-pyrano[2,3-c]quinolin]-6-yl]carbamate]",7.84,0.02,–,–
"COc1ccc2nc(C3CC3)c3c(c2c1)C(F)(F)C[C@]1(C[C@H]2C(=O)N[C@]4(C(=O)NS(=O)(=O)C5(C)CC5)C[C@H]4/C=C\CCCCC[C@H](NC(=O)O[C@@H](C)C(C)C)C(=O)N2C1)O3 [Example 250, (2S)-3-methylbutan-2-yl [(2S,6S,12Z,13aS,14aR,16aS)-5′-cyclopropyl-1′,1′-difluoro-9′-methoxy-14a-{[(1-methylcyclopropyl)sulfonyl]carbamoyl}-5,16-dioxo-1,1′,2′,5,6,7,8,9,10,11,13a,14,14a,15,16,16a-hexadecahydrospiro[cyclopropa[e]pyrrolo[1,2-a][1,4]diazacyclopentadecine-2,3′-pyrano[2,3-c]quinolin]-6-yl]carbamate]",–,–,8.19,0.024
"Cc1nc2ccc(C(F)(F)F)cc2c2c1O[C@]1(CC2)C[C@H]2C(=O)N[C@]3(C(=O)NS(=O)(=O)C4(C)CC4)C[C@H]3/C=C\CCCCC[C@H](NC(=O)OC(C)(C)C)C(=O)N2C1 [Example 251, tert-butyl [(2R,6S,12Z,13aS,14aR,16aS)-5′-methyl-14a-{[(1-methylcyclopropyl)sulfonyl]carbamoyl}-5,16-dioxo-9′-(trifluoromethyl)-1,1′,2′,5,6,7,8,9,10,11,13a,14,14a,15,16,16a-hexadecahydrospiro[cyclopropa[e]pyrrolo[1,2-a][1,4]diazacyclopentadecine-2,3′-pyrano[2,3-c]quinolin]-6-yl]carbamate]",–,–,7.84,0.021
"Cc1nc2ccc(C(F)(F)F)cc2c2c1O[C@]1(CC2)C[C@H]2C(=O)N[C@]3(C(=O)NS(=O)(=O)C4(C)CC4)C[C@H]3/C=C\CCCCC[C@H](NC(=O)OC3CCCC3)C(=O)N2C1 [Example 252, cyclopentyl [(2R,6S,12Z,13aS,14aR,16aS)-5′-methyl-14a-{[(1-methylcyclopropyl)sulfonyl]carbamoyl}-5,16-dioxo-9′-(trifluoromethyl)-1,1′,2′,5,6,7,8,9,10,11,13a,14,14a,15,16,16a-hexadecahydrospiro[cyclopropa[e]pyrrolo[1,2-a][1,4]diazacyclopentadecine-2,3′-pyrano[2,3-c]quinolin]-6-yl]carbamate]",–,–,7.35,0.01
